The values below come from patent US10765654B2, “Methods and compounds for treating cancer” (University of Vermont and State Agricultural College, priority 2011, dated 2020).

Series [1] has as its system Oli-Neu cells, an oligodendrocyte progenitor cell (OPC) line. Nature of the series: Cell cycle profile by propidium iodide staining and flow cytometry. The following applies: 0.25% GTA for 24 hours; Sato's medium; compared with GSCs. It counts as cell-based, murine. The procedure: (§1) Cell cycle profiles were visualized by propidium iodide (PI) staining as previously described (Perez-Martinez & Jaworski (2005) J Neurosci 25:4917-29). OG35, OG33 and mouse neural stem cells were grown in stem cell medium (SCM; DMEM/F12, B27, 20 ng/ml ea bFGF & EGF) while the oligodendrocyte progenitor cell line, Oli-neu (Jung et al. (1995) Eur J Neurosci 7:1245-65) was grown in Sato's medium (DMEM supplemented with 100 μg/ml apotransferrin, 5 μg/ml insulin, 60 nM triiodothyronine, 30 nM sodium selenite, 100 μM putrescine, 1% horse serum, and 25 μg/ml G418). […] after 0.25% (v/v) GTA treatment, cells were trypsinized, recovered by centrifugation, re-suspended (10^6 cells/ml) in a low-salt PI solution ([…] polyethylene glycol PEG 8000, […], 180 U/ml RNase A, 0.1% Triton X-100, and 4 mM sodium citrate), and incubated at 37° C. for 20 minutes. After addition of an equal volume of high-salt PI solution ([…] polyethylene glycol PEG 8000, […], 180 U/ml RNase A, 0.1% Triton X-100, and 400 mM NaCl) and incubation at 4° C. for 1 hour, cell cycle profiles were recorded by flow cytometry (BD LSR 11 Flow Cytometer, BD Biosciences; Franklin Lakes, N.J.).

Series [2] has as its system murine neural stem cells (NSCs). Described as above. The following applies: 0.25% GTA in SCM for 24 hours. It is filed as cell-based. The procedure: as §1
Series [3] has as its system GBM8 GSCs. As to the kind of experiment: Growth dynamics, unbiased trypan blue exclusion based cytometry. It is filed as cell-based, human. Conditions: GTA; GBM8 cells grown in DM. The procedure: Growth dynamics were assessed using unbiased trypan blue exclusion based cytometry. Cells were plated (at 10,000 cells per well of a 24-well plate) directly in the absence or presence of 0.25% GTA. After 1, 3, and 5 days of treatment, cells were typsinized, collected via centrifugation, and counted according to the manufacturer's instructions (Countess Automated Cell Counter; Invitrogen Life Technologies; Carlsbad, Calif.).
Growth dynamics was determined as described in prior examples herein.

Series [4] relates to ASPA in OG33 cells. As to the kind of experiment: Western blot of ASPA expression. Conditions: 0.25% GTA. It is filed as cell-based, human. The procedure:
(§2) SDS-PAGE (25 μg protein from whole cell lysates) and western blotting were performed as previously described (Lluri et al. 2008 Exp Cell Res 314:11-24). Cytosol and nuclear fractions were isolated according to standard protocols. Antibodies: rabbit anti-mouse ASPA (2,000×), (Madhavarao et al. 2004 Comp Neurol 472:318-29) rabbit anti-human ASPA (5,000×; GTX1338; GeneTex, Irvine, Calif.), goat anti-human actin (1,000×, sc-1616, Santa Cruz Biotechnology, Santa Cruz, Calif.), rabbit anti-human GAPDH (5,000×, sc-25778, Santa Cruz Biotechnology, Santa Cruz, Calif.), mouse anti-human histone H1 (250×, sc-8030; Santa Cruz Biotechnology, Santa Cruz, Calif.). Species-specific HRP—(3,000×) conjugated secondary antibodies were obtained from Jackson ImmunoResearch (West Grove, Pa.). Immunocomplexes were visualized by enhanced chemiluminescence (PerkinElmer Life Sciences; Boston, Mass.) and densitometry performed using Quantity One software (Bio-Rad; Hercules, Calif.).
(§3) SDS-PAGE (25 μg protein from whole cell lysates) and western blotting were performed as previously described in Example 1.

Series [5] relates to ASPA in OG35 cells. Nature of the series: Western blot of ASPA expression. It counts as cell-based, human. Conditions: 0.25% GTA. The procedure: as §2, §3
(Immunoblotting shows a protein as a band on a membrane.)

Series [6] relates to OG33 cells. As to the kind of experiment: Immunocytochemistry after 5 days in differentiation medium with or without GTA. It counts as cell-based, human. Conditions: 0.25% GTA, 5 days in DM. The procedure: (§4) Immunocytochemistry was performed as described (Perez-Martinez & Jaworski (2005) J Neurosci 25:4917-29). Briefly, OG33 and OG35 cells were plated into differentiaion medium (DMEM, 10% FBS) in the absence or presence of 0.25% GAT and fixed with 2% paraformaldehyde after 5 days. Antibodies: rabbit anti-human ASPA (1500×; GTX13389; GeneTex, Irvine, Calif.), Rabbit anti-mouse ASPA (2,000× for western blot) (Madhavarao et al., 2004 Comp Neurol 472:318-29), rabbit anti-mouse AceCS1 (15,000× western blot; 1,500× immunocytochemistry) (Ariyannur et al. 2010 J Comp Neurol 518:2952-77), rabbit anti-mouse 2′,3′-cyclic nucleotide 3′-phosphodiesterase (CNPase; 500×sc-30158; Santa Cruz Biotechnology, Santa Cruz, Calif.). Cy3- (500×) conjugated secondary antibodies were obtained from Jackson ImmunoResearch (West Grove, Pa.). Immunocytochemistry for Histone 3/Tubulin/poly(ADP-ribose) polymerase (PARP) was performed using the PathScan Multiplex IF kit per manufacturer's instructions (Cell Signaling Technology, Danvers, Mass.).

Series [7] has as its system OG35 cells. Described as above. It is filed as cell-based, human. The following applies: 0.25% GTA, 5 days in DM. The procedure: as §4
The test system of series [8] is OG35 GSCs. As to the kind of experiment: Orthotopic graft in athymic mice, comparison of priming, concurrent and salvage regimens. It is filed as in vivo. The following applies: OG35 GSC engrafted mice; priming with GTA two days prior to TMZ treatment. The procedure:
Cells (2,500 cells in 4 μl) were injected into the right striatum (1 mm anterior, 1.5 mm lateral to bregma, 3.5 mm deep) of adult athymic mice (8-week-old, 25-28 g). GTA (5.8 g/kg plus 10% v/v Ora-Sweet SF® (Paddock Laboratories, Minneapolis, Minn.) was administered intragastrically daily starting on the third post-operative day. TMZ (20 mg/kg) was administered intragastrically in an oral suspension vehicle containing 2.5 mg/ml Povidone K30, 0.013% citric acid, 50% Ora-Plus® (Paddock Laboratories, Minneapolis, Minn.), 50% Ora-Sweet SF® (Paddock Laboratories, Minneapolis, Minn.) on days 5, 7, 9, 11, and 13. Mice receiving the combined GTA/TMZ therapy received the TMZ in the morning (˜7-8 AM) and GTA in the evening (˜6-7 PM).
Orthotopic grafting was performed as described above in Example 6. In addition to the treatments described above, the following treatments were tested: 1) concurrent (GTA and TMZ on days 5, 7, 9, 11, 13, with GTA alone on days 6, 8, 10, 12 and continuous GTA afterwards), and 2) salvage (GTA administered daily after single course of TMZ on days 5, 7, 9, 11, and 13).

The conditions of series [9]: acetate supplementation in children with Canavan Disease; cited from earlier work.

`CC(=O)OCC(COC(C)=O)OC(C)=O` [GTA, glyceryltriacetate]: the Cell cycle arrest result in series [1] is listed as “less effect”. Besides, the Cell cycle arrest entry in series [2] is given as “no effect”. Further, the Growth dynamics entry in series [3] is “reduced growth dynamics”. In series [4], the “Expression of novel 26 kDa ASPA species (Western blot)” value is “induced the expression of a novel 26 kDa species” and the “Expression of the putative 36 kDa ASPA protein (Western blot)” value was “no effect”. Moreover, in [5], the “ASPA expression (Western blot)” value is recorded as “decreased ASPA expression”. In addition, in series [6], the “Apoptosis (cleaved PARP, Asp214)” value is reported as “no cleaved PARP” and the “Proliferation (phospho-histone H3 [Ser 10])” value is reported as “decreased phospho-histone H3”. In addition, in series [7] (OG35), the “Apoptosis (cleaved PARP, Asp214)” value is recorded as “no cleaved PARP”; the “Nuclear expression of ASPA” value is reported as “increase the nuclear expression of ASPA”; the “Proliferation (phospho-histone H3 [Ser 10])” value is on record as “decreased phospho-histone H3”. The “GSC differentiation (expression of CNPase, a marker of mature oligodendrocytes)” value in series [7] (primarily in OG35 cells) is on record as “increased expression of CNPase”. Further, in [8], the “Survival versus TMZ alone” value is “increased survival over TMZ alone”. For the same compound, the Adverse effects entry in [9] was “without any adverse effects”.
